Reference: patent publication US20120039957A1 (ACURA PHARMACEUTICALS, INC., priority 2010, published 2012)

Tests used:
[1] = for mean time to peak disliking / mean peak disliking effect (Emin), VAS: 480 mg oral tablet, after high-fat breakfast; for mean time to peak disliking: high responders; for mean peak disliking effect (Emin), VAS: high responders (six subjects)
Method: A total of 49 subjects were enrolled. […] As identified in the randomization schedule for each subject, subjects took each dose of study drug immediately following a standardized high-fat breakfast.
During the study, each subject completed a 100 point Visual Analog Scale (VAS) “Like/Dislike” Rating Scale at dosing and for up to 6 hours post-dosing where subjects were asked “Do you like or dislike the drug effect you are feeling now?”

[2] = at pH 4.8; cited from earlier work
[3] = intestinal pH reduced from pH 8 to pH 5; cited from earlier work
[4] = in the presence of food, VAS over 6 hours

Row | Compound | mean time to peak disliking [1] | mean peak disliking effect (Emin), VAS [1] | high responder subjects (of six) with lower VAS scores than with standard niacin ([1]; 480 mg, fed, six high responders) | faster time to peak disliking than standard particle size niacin [1, 4] | more substantial disliking effect than standard particle size niacin [1, 4] | fraction non-ionized [2] | enhancement of intestinal uptake [3]
1 | O=C(O)c1cccnc1 [micronized niacin, niacin] | 2.25 h | −28.7 mm | five | 25% | 89% |  | 
2 | O=C(O)c1cccnc1 [standard niacin, niacin, reference compound] | 3.0 h | −15.3 mm |  |  |  |  | 
3 | O=C(O)c1cccnc1 [niacin] |  |  |  |  |  | 50% | approximately five fold
